From US20050113456A1, “Method of decreasing fat deposits and body weight in mammals and birds” (priority 2003, published 2005)
Where “and” joins values, the source holds several entries; their conditions need not be identical. Identical values can stand only once. Like-named read-outs stand apart in the source and are kept apart here.

Tests used:
[1] = Reduction of body fat by the isomers of salbutamol; design: species or system mammals and birds; settings: in vivo
smooth muscle = settings: Yamaguchi et al. 1996; cited from earlier work
Cobb broilers = test: Safety study in chicken: mortality; type: in vivo; settings: Day 14 to Day 28, Cobb broilers
Experimental: (§1) Three dietary treatments were used in this clinical study. […] After mixing, the diets were cold pelleted (65° C.).
Feed and water were available ad libitum. […] Mortality was recorded daily.

[2] = Experimental: Three dietary treatments were used in this clinical study. […] Sixty kilograms of each diet was prepared, and the drugs were mixed into the diets according to the standard operating procedures of the test facility. After mixing, the diets were cold pelleted (65° C.). The diets were analyzed for their concentration of test article immediately after the mixing and at predetermined intervals thereafter.
Day-old male broiler (Cobb) chicken were obtained from a commercial hatchery. The birds were raised in battery brooders housed in an environmentally controlled room and they received a commercial broiler starter diet from day 1 to 12. The birds were transferred to grower cages on day 12. On day 14, birds were weighed individually and birds with relatively high or low body weights were discarded. A total of 72 birds (of uniform body weight) were chosen and distributed into test groups so that average weights per test group were nearly equal. […] The diets were fed from day 14 to 28 and the animals were slaughtered on Day 29. Feed and water were available ad libitum. […] Mortality was recorded daily.

[3] = Efficacy study in obese adult mammals; settings: oral, obese adult animals, preliminary results
[4] = Efficacy study in chicken: abdominal fat pad and body weight gain; type: in vivo; settings: for Abdominal fat pad (% BW): day 21 to 42; for Influence on body weight gain (grams): gain during 21 to 42 days of age; for Reduction of fat pads: females; for Decrease of fat pads: males
Experimental: as §1
The birds were transferred to grower cages on day 15 and a commercial broiler finisher diet (18.9% crude protein) was fed. […] Animals (of uniform body weight) were distributed into groups of 24 birds each. (Additional treatment groups than those shown here were used and dosed differently.) Each of the dietary treatments was then randomly assigned to the treatment groups. The diets were fed from day 21 and the animals were slaughtered on Day 42. Feed and water were available ad libitum throughout the study. Body weights were recorded at weekly intervals.

Beta-3 receptor = Beta-3 receptor (Homo sapiens, UniProt P13945); settings: results obtained from BRIDGE PHARMA, Inc.; read-out: Affinity for receptor (Ki) Beta-3; cited from earlier work
Beta-3 receptor, sequence (P13945 whole entry): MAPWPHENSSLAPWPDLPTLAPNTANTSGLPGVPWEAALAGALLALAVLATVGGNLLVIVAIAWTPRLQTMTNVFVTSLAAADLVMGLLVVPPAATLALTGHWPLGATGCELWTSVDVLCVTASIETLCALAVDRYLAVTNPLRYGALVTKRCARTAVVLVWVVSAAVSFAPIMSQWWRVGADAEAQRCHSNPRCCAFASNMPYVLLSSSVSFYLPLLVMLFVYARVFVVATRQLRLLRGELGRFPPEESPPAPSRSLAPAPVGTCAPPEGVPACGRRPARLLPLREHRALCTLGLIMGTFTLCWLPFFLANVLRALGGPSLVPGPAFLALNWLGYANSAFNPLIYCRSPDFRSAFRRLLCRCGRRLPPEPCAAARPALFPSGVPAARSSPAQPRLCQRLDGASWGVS

[5] = Efficacy study in obese young mammals; settings: oral, obese young animals, preliminary results
[6] = cited from earlier work; for Reduction of fat pad: Rehfeldt et al. 1997
[7] = female broilers, 10 ppm in feed

CC(C)(C)NC[C@@H](O)c1ccc(O)c(CO)c1 [S-salbutamol]
Reduction of fat content in the bodies of mammals and birds [1]: did not reduce fat
Smooth muscle hyperreactivity (smooth muscle): causes smooth muscle hyperreactivity

CC(C)(C)NCC(O)c1ccc(O)c(CO)c1 (racemic) [RS-salbutamol]
Mortality (out of 24 birds) (Cobb broilers; 10 ppm in feed): caused fatalities and 2/24
Tissue drug concentration ([2]; racemate-treated animals): 61.3 ng/g
Concentration of total salbutamol in liver ([2]; treatment 10 ppm RS-salbutamol in feed, Day 14 to Day 28): 61.3 ng of drug per g of liver

α′[(tert-butylamino) methyl]-4-hydroxy-m-xylene-α,α′-diol [R-salbutamol]
Reduction of fat content in the bodies of mammals and birds [1]: potently and stereoselectively reducing the fat content
Effect on body fat [3]: significantly decreases body fat
Abdominal fat pad (% BW) ([4]; female broilers, 5 ppm in feed): 1.79 % BW
Influence on body weight gain (grams) ([4]; female broilers, 5 ppm in feed): 1646 grams
Abdominal fat pad (% BW) [4, 7]: 1.77 % BW
Influence on body weight gain (grams) [4, 7]: 1614 grams
Reduction of fat pads ([4]; 5 ppm): 19.4%
Reduction of fat pads ([4]; 10 ppm): 20.3%
Abdominal fat pad (% BW) ([4]; male broilers, 5 ppm in feed): 1.64 % BW
Influence on body weight gain (grams) ([4]; male broilers, 5 ppm in feed): 1886 grams
Abdominal fat pad (% BW) ([4]; male broilers, 10 ppm in feed): 1.63 % BW
Influence on body weight gain (grams) ([4]; male broilers, 10 ppm in feed): 1887 grams
Decrease of fat pads ([4]; 5 ppm): 17.2%
Decrease of fat pads ([4]; 10 ppm): 17.7%
Ki (Beta-3 receptor): > 10 µM
Mortality (out of 24 birds) (Cobb broilers; 5 ppm in feed): no fatalities and 0/24
Effect on body fat [5]: significantly decreases body fat

CC(C)(C)NCC(O)c1cc(Cl)c(N)c(Cl)c1 (racemic) [clenbuterol, 4-amino-α-[(tert-butylamino)methyl]-3,5-dichlorobenzyl alcohol]
Effect on body weights of broiler chicken ([6]; Dalrymple et al. 1984): increased
Effect on abdominal fat weight ([6]; chicken, Hamano et al. 1998): could not find any effect
Reduction of abdominal fat pad ([6]; female chicken, Dalrymple et al. 1984): 8.5%
Reduction of fat pad ([6]; female chicken): 8.5%
Reduction of abdominal fat pad ([6]; male chicken, Dalrymple et al. 1984): did not reduce
Reduction of fat pad ([6]; male chicken): 6.0%
